ChEMBL document CHEMBL5143519, “Exploring disordered loops in DprE1 provides a functional site to combat drug-resistance in Mycobacterium strains” (Eur J Med Chem, 2022)
≈ marks a conversion by molar mass, not a printed value. Calls of active or inactive are those of the source. The rule behind the calls is not given here.

Key:
[1] = tested on: Mycobacterium tuberculosis variant bovis; test: Antimycobacterial activity against Mycobacterium bovis BCG assessed as inhibition of bacterial growth incubated for 7 days by microplate alamar blue assay; format: functional; conditions: 168 h, time 7 day
[2] = tested on: Mycobacterium tuberculosis variant bovis; test: Antimycobacterial activity against Mycobacterium bovis BCG overexpressing DprE1 assessed as inhibition of bacterial growth incubated for 7 days by microplate alamar blue assay; format: functional; conditions: 168 h, time 7 day
[3] = tested on: Mycobacterium tuberculosis variant bovis; test: Antimycobacterial activity against Mycobacterium bovis BCG assessed as reduction in bacterial colony forming units at 20 times MIC concentration measured after 21 days by time kill assay; format: functional; conditions: time 21 day
[4] = tested on: Mycobacterium tuberculosis variant bovis; test: Antimycobacterial activity against Mycobacterium bovis BCG assessed as reduction in bacterial colony forming units at 20 times MIC concentration measured after 7 days by time kill assay; format: functional, organism-based; conditions: time 7.0 day
[5] = tested on: Mycobacterium tuberculosis variant bovis; test: Antimycobacterial activity against Mycobacterium bovis BCG overexpressing DprE1 assessed as reduction in bacterial colony forming units at 20 times MIC concentration measured after 21 days by time kill assay; format: functional, organism-based; conditions: time 21.0 day

## O=C(NC(=O)c1ccsc1NC(=O)c1nc2ccccc2s1)OCC1CC1
[1]
  MIC: 3.11 µM (≈ 1.25 µg/mL)
[2]
  MIC: 12.4 µM (≈ 4.99 µg/mL)
[3]
  Activity: 3 log10CFU/ml
[4]
  Activity: Active
[5]
  Activity: Active

## CO[C@H]1/C=C/O[C@@]2(C)Oc3c(C)c(O)c4c(O)c(c(/C=N/N5CCN(C)CC5)c(O)c4c3C2=O)NC(=O)/C(C)=C\C=C\[C@H](C)[C@H](O)[C@@H](C)[C@@H](O)[C@@H](C)[C@H](OC(C)=O)[C@@H]1C [RIFAMPIN]
[1]
  MIC: 0.35 µM (≈ 0.288 µg/mL)
[2]
  MIC: 0.35 µM (≈ 0.288 µg/mL)
[3]
  Activity: 3 log10CFU/ml

## CCOC(=O)NC(=O)c1ccsc1NC(=O)c1nc2ccccc2s1
[1]
  MIC: 13.3 µM (≈ 4.99 µg/mL)
[2]
  MIC: 66.5 µM (≈ 25 µg/mL)
[3]
  Activity: 3 log10CFU/ml

## O=C(NC(=O)c1ccsc1NC(=O)c1nc2ccccc2s1)OCC1CCC1
[1]
  MIC: 12 µM (≈ 4.99 µg/mL)
[2]
  MIC: 30 µM (≈ 12.5 µg/mL)
